# Where two headings read alike, the source gives them in different places.
# Legend:
# [1] = tested on: panel of 49 patient-derived HIV-1 reporter viruses with PI resistance-associated substitutions; format: cell-based; conditions: for isolates with complete loss of activity: of 49 PI-resistant clinical isolates
# [2] = single oral dose co-administered with a pharmacological boosting agent; cited from earlier work
# [3] = tested on: HIV-1 BaL; test: p24 production antiviral assay in monocyte-derived macrophages; format: cell-based
# Description: (§1) Antiviral assays performed in HIV-1BaL infected CD4 +T-lymphocytes and monocyte-derived macrophages (MDMs) have been described previously ([18]). Cell-free supernatants derived from the CD4 +T cell and macrophage cultures were harvested 7- and 12-days post-infection, respectively, and the amount of HIV present was quantified by p24 antigen enzyme-linked immunosorbent assay (ELISA, Perkin Elmer, Waltham, MA) performed according to the manufacturer’s protocol.
# [4] = target: recombinant HIV-1 protease (Human immunodeficiency virus type 1 group M subtype B, UniProt P04585); test: biochemical
# Method: For the HIV protease assay, recombinant HIV-1 protease expression, purification, and enzymatic assay using a fluorogenic readout were performed as previously described with some minor changes ([22]). […] After a 20-minute pre-incubation, the enzymatic reaction was initiated by the addition of the fluorogenic substrate to a final concentration of 40 µM and a final volume of 100 µL. The reaction was measured over 20 minutes on a Tecan Infinite M1000 plate reader using excitation and detection wavelengths of 320 nm and 420 nm, respectively.
# [5] = Metabolic stability in human liver microsomes; format: in vitro ADME
# [6] = tested on: HIV-1LAI wild type and site-directed PR mutants; test: microbe, parasite or virus in culture; format: cell-based
# [7] = tested on: HIV-1 IIIb; test: 5-day cytoprotection antiviral assay in MT-4 cells; format: cell-based
# [8] = tested on: HIV-1 BaL; test: p24 production antiviral assay in CD4+ T-lymphocytes; format: cell-based
# Description: as §1
# [9] = Cytotoxicity in monocyte-derived macrophages; format: cell-based; conditions: human, uninfected (mock infected) monocyte-derived macrophages
# Method: (§2) Compound cytotoxicity assessment in MT-4 cells, primary CD4+ T lymphocytes, and MDMs was carried out using a protocol identical to the antiviral assay except uninfected cells were used and tested with higher concentration ranges of test compounds. Assessment of cytotoxicity in additional human cell lines (Gal-PC3, Gal-HepG2, HEp-2, Huh-7, MRC-5, HepG2-NTCP, Huh7-Lunet HCV 1b and 2a replicons, NHBE, A549-hACE2) and primary human PBMCs (resting and stimulated with PHA/IL-2) and hepatocytes have been described previously ([19]). For all cytotoxicity assays, the CC50 value for puromycin was determined as a positive internal control and to assess assay sensitivity in each cell type. The effect of tested compounds on cell viability was measured using a CellTiter-Glo readout, performed according to the manufacturer’s recommendations.
# [10] = Cytotoxicity in CD4+ T-lymphocytes; format: cell-based; conditions: human, uninfected (mock infected) primary CD4+ T lymphocytes
# Method: as §2
# [11] = tested on: MT-4 T cell line; test: Cytotoxicity in uninfected MT-4 cells; format: cell-based, human; conditions: mock infected
# Method: as §2
# [12] = Cytotoxicity in uninfected MT-4 cells; format: cell-based, human; conditions: human, uninfected (mock infected) MT-4 T cells, MT-4 T cell line
# Method: as §2
# [13] = tested on: HIV-1IIIb; test: Two-drug in vitro combination assay in MT-2 cells (MacSynergy II); format: cell-based
# Method: Anti-HIV-1 assays evaluating the in vitro antiviral effect of two-drug combinations were performed in MT-2 cells as previously described ([26]). Data were normalized to positive and negative controls in each plate and expressed as a percentage of protection from CPE-dependent cell death and analyzed with the MacSynergy II software. Combination data were analyzed at the 99% confidence level, with synergy/antagonism volumes defined as follows: high synergy (>100 µM^2%), moderate synergy (50 to <100 uM^2%), additivity (>−50 to <50 µM^2%), and antagonism (<−50 µM^2%).
# [14] = tested on: two HIV-2 isolates; test: Antiviral assay in PBMCs with HIV-2 clinical isolates (RT endpoint); format: cell-based; conditions: Human immunodeficiency virus 2, PBMC, 168 h, 7-day, RT activity
# Method: (§3) Antiviral assays using fresh human PBMCs independently infected with a panel of clinical HIV-1 and HIV-2 isolates were performed by Southern Research as a contracted research study and assessed 7 days post-infection using reverse transcriptase (RT) endpoint assay. Antiviral assays using HIV-1 reporter viruses containing patient-derived sequences encoding all of PR and a portion of RT (amino acids 1–313) and conferring resistance to FDA-approved HIV PIs were performed by Monogram Biosciences Inc. (South San Francisco, CA) using their previously described Phenosense assay ([25]).
# [15] = tested on: 20 HIV-1 clinical isolates; test: Antiviral assay in PBMCs with HIV-1 clinical isolates (RT endpoint); format: cell-based; conditions: Human immunodeficiency virus 1, PBMC
# Method: as §3
# [16] = tested on: HIV-1 mutants resistant to NRTIs, NNRTIs, INSTIs
# [17] = Human immunodeficiency virus 1, PR L24I M46L A77I V82A
# [18] = Human immunodeficiency virus 1, PR L24I M46L I64V A77I V82A
# [19] = Human immunodeficiency virus 1, PR M46L A77I V82A
# [20] = Human immunodeficiency virus 1, PR V82A
# [21] = Human immunodeficiency virus 1, Wild type (WT) HIV-1LAI
# [22] = pairwise combination with GS-9770, 99% confidence, MT-2/HIV-1IIIb
structure (smiles),measurement,setting,value
"COC(=O)N[C@H](C(=O)N[C@@H](Cc1ccccc1)[C@@H](O)CN(Cc1ccc(-c2ccccn2)cc1)NC(=O)[C@@H](NC(=O)OC)C(C)(C)C)C(C)(C)C [ATV, atazanavir]",data points with fold change in EC50 above limit,[1],five
same,mean fold change (FC) in EC50 vs wild-type HIV-1 (geometric mean),[1]; 49 PI-resistant reporter viruses,9.1 fold
same,isolates with complete loss of activity,[1],3
same,isolates with greater than 10-fold loss in susceptibility,"[1]; of 49 isolates, cutoff 10-fold",16
same,plasma half-life in humans,[2],516 min
same,SI (CC50/EC50 ratio),[3],">3,100"
same,EC50,"[3]; Human immunodeficiency virus 1, Macrophage, HIV-1BaL infected",16 ± 12 nM
same,Ki,[4],0.023 nM
same,Eh% (percent predicted hepatic extraction),[5],63%
same,Predicted CL (predicted human clearance),[5],13 mL/min/kg
same,half-life,[5]; read-out: T½ in the presence of human liver microsomes,24 min
same,EC50,[6]; [17],4.2 ± 0.8 nM
same,EC50,[6]; [18],11.7 ± 1.4 nM
same,EC50,[6]; [19],6.9 ± 1.8 nM
same,EC50,[6]; [20],7.6 ± 3.3 nM
same,EC50,[6]; [21],5.7 ± 3.6 nM
same,fold-change relative to WT,[6]; PR L24I M46L A77I V82A,0.7 fold
same,fold-change relative to WT,[6]; PR L24I M46L I64V A77I V82A,2.1 fold
same,fold-change relative to WT,[6]; PR M46L A77I V82A,1.2 fold
same,fold-change relative to WT,[6]; PR V82A,1.3 fold
same,fold-change relative to WT,[6]; Wild type (WT) HIV-1LAI,1.0 fold
same,EC50,"[7]; Human immunodeficiency virus 1, IIIB, T-cell, 120 h",11 ± 3 nM
same,SI (CC50/EC50 ratio),[7]; MT-4 T cell line,"4,700"
same,95% effective concentration (EC95),[7]; calculated from MT-4/HIV-1IIIb EC50 and Hill coefficient,19.5 nM
same,SI (CC50/EC50 ratio),[8],">12,000"
same,EC50,"[8]; Human immunodeficiency virus 1, T-lymphocyte, HIV-1BaL infected",4.3 ± 1.9 nM
same,CC50,[9],> 50000 nM
same,CC50,[10],> 50000 nM
same,CC50,[11],51000 ± 8000 nM
same,CC50,[12],> 50000 nM
"O=C(NCc1c(F)cc(F)cc1F)c1cn2c(c(O)c1=O)C(=O)N1[C@H]3CC[C@H](C3)O[C@@H]1C2 [BIC, bictegravir]",Combination effect,[13]; pairwise combination with GS-9770,Highly synergistic
same,Antagonism volume,[13]; [22],−11 ± 13 µM^2.%
same,Synergy volume,[13]; [22],156 ± 49 µM^2.%
"CC(C)CN(C[C@@H](O)[C@H](Cc1ccccc1)NC(=O)O[C@H]1CO[C@H]2OCC[C@H]21)S(=O)(=O)c1ccc(N)cc1 [DRV, darunavir]",isolates with complete loss of activity,[1],5
same,EC50,[14],8.5 nM
same,EC50,"[15]; 168 h, read-out: mean EC50",3.2 nM
same,EC50,[15]; read-out: EC50 range,0.8 to 9.2 nM
"O=C1Nc2ccc(Cl)cc2[C@@](C#CC2CC2)(C(F)(F)F)O1 [EFV, efavirenz]",Fold resistance (mutant/wildtype EC50 ratio),[16]; K103N,14 ± 12
same,Fold resistance (mutant/wildtype EC50 ratio),[16]; K103N+Y181C,11 ± 5
same,Fold resistance (mutant/wildtype EC50 ratio),[16]; L100I+K103N,>30
same,Fold resistance (mutant/wildtype EC50 ratio),[16]; Y181C,3.5 ± 0.6
same,Fold resistance (mutant/wildtype EC50 ratio),[16]; Y188L,>30
same,EC50,[6]; [17],1.1 ± 0.1 nM
same,EC50,[6]; [18],1 ± 0.2 nM
same,EC50,[6]; [19],1 ± 0.2 nM
same,EC50,[6]; [20],1.2 ± 0.6 nM
same,EC50,[6]; [21],1.3 ± 0.7 nM
same,fold-change relative to WT,[6]; PR L24I M46L A77I V82A,0.9 fold
same,fold-change relative to WT,[6]; PR L24I M46L I64V A77I V82A,0.8 fold
same,fold-change relative to WT,[6]; PR M46L A77I V82A,0.8 fold
same,fold-change relative to WT,[6]; PR V82A,1.0 fold
same,fold-change relative to WT,[6]; Wild type (WT) HIV-1LAI,1.0 fold
"COc1cc2c(cc1Cc1cccc(Cl)c1F)c(=O)c(C(=O)O)cn2[C@H](CO)C(C)C [EVG, elvitegravir]",Fold resistance (mutant/wildtype EC50 ratio),[16]; E92Q+N155H,>50
same,Fold resistance (mutant/wildtype EC50 ratio),[16]; E138K+Q148K,>50
same,Fold resistance (mutant/wildtype EC50 ratio),[16]; G140S+Q148R,>50
same,Fold resistance (mutant/wildtype EC50 ratio),[16]; Q148+N155H,>50

# — article PMC10989020, “Preclinical characterization of a non-peptidomimetic HIV protease inhibitor with improved metabolic stability” (Antimicrobial Agents and Chemotherapy, 2024)
